Laboratory results published in the supplement of paper PMC11061612.

Columns and labels:
AZD1775 = compound: C=CCn1c(=O)c2cnc(Nc3ccc(N4CCN(C)CC4)cc3)nc2n1-c1cccc(C(C)(C)O)n1 [AZD1775]; conditions: max 3 µM
In short: (§1)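 In 1536-well plates, cancer cell lines in 7.5 μl DMEM/F12 or RPMI with 10% FBS spent 24 hours at 37°C and 5% CO2 and were then dosed for 72 hours with final DMSO typically 0.2%. Viability was read by CellTiter-Glo 2.0 luminescence and scaled between blank-well and DMSO-well means. The single-agent IC50 was fitted from dose responses using a logistic curve in a non-linear mixed effects model, and that logistic curve had two parameters.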

SRA737 = compound: N#Cc1cnc(Nc2cc(NC[C@H]3CNCCO3)c(C(F)(F)F)cn2)cn1 [SRA737]; conditions: max 10 µM
In short: as §1

Lapatinib = compound: CS(=O)(=O)CCNCc1ccc(-c2ccc3ncnc(Nc4ccc(OCc5cccc(F)c5)c(Cl)c4)c3c2)o1 [Lapatinib]; conditions: max 10 µM
In short: as §1

AZD4320 = compound: CN(CC[C@H](CSC1=CC=CC=C1)NC2=C(C=C(C=C2)S(=O)(=O)NC(=O)C3=CC=C(C=C3)N4CCC(CC4)[C@H](C5=CC=CC=C5C6=CC=C(C=C6)Cl)O)S(=O)(=O)C(F)(F)F)CCO [AZD4320]; conditions: max 1 µM
In short: as §1

SN-38 = compound: CCc1c2c(nc3ccc(O)cc13)-c1cc3c(c(=O)n1C2)COC(=O)[C@]3(O)CC [SN-38]; conditions: max 0.3 µM
In short: as §1

Carboplatin = compound: C1CC(C1)(C(=O)[O-])C(=O)[O-].N.N.[Pt+2] [Carboplatin]; conditions: max 10 µM
In short: as §1

Gefitinib = compound: COc1cc2ncnc(Nc3ccc(F)c(Cl)c3)c2cc1OCCCN1CCOCC1 [Gefitinib]; conditions: max 10 µM
In short: as §1

Palbociclib = compound: CC(=O)c1c(C)c2cnc(Nc3ccc(N4CCNCC4)cn3)nc2n(C2CCCC2)c1=O [Palbociclib]; conditions: max 10 µM
In short: as §1

Dasatinib = compound: CC1=C(C(=CC=C1)Cl)NC(=O)C2=CN=C(S2)NC3=CC(=NC(=N3)C)N4CCN(CC4)CCO [Dasatinib]; conditions: max 2 µM
In short: as §1

Trametinib = compound: CC(=O)Nc1cccc(-n2c(=O)n(C3CC3)c(=O)c3c(Nc4ccc(I)cc4F)n(C)c(=O)c(C)c32)c1 [Trametinib]; conditions: max 1 µM
In short: as §1

AZD5363 = compound: C1CN(CCC1(C(=O)N[C@@H](CCO)C2=CC=C(C=C2)Cl)N)C3=NC=NC4=C3C=CN4 [AZD5363]; conditions: max 10 µM
In short: as §1

AZD5153 = compound: COc1nnc2ccc(N3CCC(c4ccc(OCCN5CCN(C)C(=O)[C@H]5C)cc4)CC3)nn12 [AZD5153]; conditions: max 1 µM
In short: as §1

MK-2206 = compound: NC1(c2ccc(-c3nc4ccn5c(=O)[nH]nc5c4cc3-c3ccccc3)cc2)CCC1 [MK-2206]; conditions: max 10 µM
In short: as §1

AZD1390 = compound: CC(C)n1c(=O)n(C)c2cnc3cc(F)c(-c4ccc(OCCCN5CCCCC5)nc4)cc3c21 [AZD1390]; conditions: max 0.3 µM
In short: as §1

Olaparib = compound: O=C(c1cc(Cc2n[nH]c(=O)c3ccccc23)ccc1F)N1CCN(C(=O)C2CC2)CC1 [Olaparib]; conditions: max 10 µM
In short: as §1

[1] = compound: O=C(Nc1ccc2[nH]nc(-c3ccncc3)c2c1)[C@@H]1CCN(CC(=O)N2CCN(c3ccc(-c4ncccn4)cc3)CC2)C1; conditions: max 5 µM
In short: as §1

Savolitinib = compound: C[C@@H](c1ccc2nccn2c1)n1nnc2ncc(-c3cnn(C)c3)nc21 [Savolitinib]; conditions: max 1 µM
In short: as §1

Selumetinib = compound: Cn1cnc2c(F)c(Nc3ccc(Br)cc3Cl)c(C(=O)NOCCO)cc21 [Selumetinib]; conditions: max 10 µM
In short: as §1

Etoposide = compound: COc1cc([C@@H]2c3cc4c(cc3[C@@H](O[C@@H]3O[C@@H]5CO[C@@H](C)O[C@H]5[C@H](O)[C@H]3O)[C@H]3COC(=O)[C@H]23)OCO4)cc(OC)c1O [Etoposide]; conditions: max 10 µM
In short: as §1

Crizotinib = compound: C[C@@H](Oc1cc(-c2cnn(C3CCNCC3)c2)cnc1N)c1c(Cl)ccc(F)c1Cl [Crizotinib]; conditions: max 10 µM
In short: as §1

AZD7648 = compound: Cc1cc2ncnn2cc1Nc1ncc2c(n1)n(C1CCOCC1)c(=O)n2C [AZD7648]; conditions: max 10 µM
In short: as §1

AZD2811 = compound: CCN(CCO)CCCOc1ccc2c(Nc3cc(CC(=O)Nc4cccc(F)c4)[nH]n3)ncnc2c1 [AZD2811]; conditions: max 1 µM
In short: as §1

Gemcitabine = compound: Nc1ccn([C@@H]2O[C@H](CO)[C@@H](O)C2(F)F)c(=O)n1 [Gemcitabine]; conditions: max 0.3 µM
In short: as §1

Venetoclax = compound: CC1(C)CCC(CN2CCN(c3ccc(C(=O)NS(=O)(=O)c4ccc(NCC5CCOCC5)c([N+](=O)[O-])c4)c(Oc4cnc5[nH]ccc5c4)c3)CC2)=C(c2ccc(Cl)cc2)C1 [Venetoclax]; conditions: max 1 µM
In short: as §1

Doxorubicin = compound: COc1cccc2c1C(=O)c1c(O)c3c(c(O)c1C2=O)C[C@@](O)(C(=O)CO)C[C@@H]3O[C@H]1C[C@H](N)[C@H](O)[C@H](C)O1 [Doxorubicin]; conditions: max 1 µM
In short: as §1

AZD8186 = compound: C[C@@H](Nc1cc(F)cc(F)c1)c1cc(C(=O)N(C)C)cc2c(=O)cc(N3CCOCC3)oc12 [AZD8186]; conditions: max 10 µM
In short: as §1

Prexasertib = compound: COc1cccc(OCCCN)c1-c1cc(Nc2cnc(C#N)cn2)n[nH]1 [Prexasertib]; conditions: max 1 µM
In short: as §1

SG3199 = compound: CC1=CN2[C@@H](C1)C=NC3=CC(=C(C=C3C2=O)OC)OCCCCCOC4=C(C=C5C(=C4)N=C[C@@H]6CC(=CN6C5=O)C)OC [SG3199]; conditions: max 0.001 µM
In short: as §1

Alisertib = compound: COc1cc(Nc2ncc3c(n2)-c2ccc(Cl)cc2C(c2c(F)cccc2OC)=NC3)ccc1C(=O)O [Alisertib]; conditions: max 10 µM
In short: as §1

AZD5991 = compound: Cc1c2c(nn1C)CSCc1cc(n(C)n1)CSc1cc(c3ccccc3c1)OCCCc1c(C(=O)O)n(C)c3c-2c(Cl)ccc13 [AZD5991]; conditions: max 1 µM
In short: as §1

AZD0156 = compound: CN(C)CCCOc1ccc(-c2ccc3ncc4c(c3c2)n(C2CCOCC2)c(=O)n4C)cn1 [AZD0156]; conditions: max 3 µM
In short: as §1

Paclitaxel = compound: CC(=O)O[C@H]1C(=O)[C@@]2(C)[C@H]([C@H](OC(=O)c3ccccc3)[C@]3(O)C[C@H](OC(=O)[C@H](O)[C@@H](NC(=O)c4ccccc4)c4ccccc4)C(C)=C1C3(C)C)[C@]1(OC(C)=O)CO[C@@H]1C[C@@H]2O [Paclitaxel]; conditions: max 3 µM
In short: as §1

5-Fluorouracil = compound: O=c1[nH]cc(F)c(=O)[nH]1 [5-Fluorouracil]; conditions: max 20 µM
In short: as §1

Taselisib = compound: Cc1nc(-c2cn3c(n2)-c2ccc(-c4cnn(C(C)(C)C(N)=O)c4)cc2OCC3)n(C(C)C)n1 [Taselisib]; conditions: max 10 µM
In short: as §1

AZD6738 = compound: C[C@@H]1COCCN1C2=NC(=NC(=C2)C3(CC3)[S@](=N)(=O)C)C4=C5C=CNC5=NC=C4 [AZD6738]; conditions: max 10 µM
In short: as §1

| Cell Line | IC50, cell viability 72 h (AZD1775) | IC50, cell viability 72 h (SRA737) | IC50, cell viability 72 h (Lapatinib) | IC50, cell viability 72 h (AZD4320) | IC50, cell viability 72 h (SN-38) | IC50, cell viability 72 h (Carboplatin) | IC50, cell viability 72 h (Gefitinib) | IC50, cell viability 72 h (Palbociclib) | IC50, cell viability 72 h (Dasatinib) | IC50, cell viability 72 h (Trametinib) | IC50, cell viability 72 h (AZD5363) | IC50, cell viability 72 h (AZD5153) | IC50, cell viability 72 h (MK-2206) | IC50, cell viability 72 h (AZD1390) | IC50, cell viability 72 h (Olaparib) | IC50, cell viability 72 h [1] | IC50, cell viability 72 h (Savolitinib) | IC50, cell viability 72 h (Selumetinib) | IC50, cell viability 72 h (Etoposide) | IC50, cell viability 72 h (Crizotinib) | IC50, cell viability 72 h (AZD7648) | IC50, cell viability 72 h (AZD2811) | IC50, cell viability 72 h (Gemcitabine) | IC50, cell viability 72 h (Venetoclax) | IC50, cell viability 72 h (Doxorubicin) | IC50, cell viability 72 h (AZD8186) | IC50, cell viability 72 h (Prexasertib) | IC50, cell viability 72 h (SG3199) | IC50, cell viability 72 h (Alisertib) | IC50, cell viability 72 h (AZD5991) | IC50, cell viability 72 h (AZD0156) | IC50, cell viability 72 h (Paclitaxel) | IC50, cell viability 72 h (5-Fluorouracil) | IC50, cell viability 72 h (Taselisib) | IC50, cell viability 72 h (AZD6738) |
| --- | --- | --- | --- | --- | --- | --- | --- | --- | --- | --- | --- | --- | --- | --- | --- | --- | --- | --- | --- | --- | --- | --- | --- | --- | --- | --- | --- | --- | --- | --- | --- | --- | --- | --- | --- |
| NCI-H1299 (Non-Small Cell Lung Carcinoma) | 364 nM | > 10000 nM | > 10000 nM | > 1000 nM | > 300 nM | > 10000 nM | > 10000 nM | > 10000 nM | 1570 nM | 912 nM | > 10000 nM | 184 nM | > 10000 nM | > 300 nM | > 10000 nM | > 5000 nM | > 1000 nM | > 10000 nM | > 10000 nM | > 10000 nM | > 10000 nM | > 1000 nM | 239 nM | > 1000 nM | 880 nM | > 10000 nM | 100 nM | > 1 nM | > 10000 nM | > 1000 nM | > 3000 nM | 134 nM | > 20000 nM | > 10000 nM | 9870 nM |
| NCI-H2595 (Mesothelioma) | > 3000 nM | > 10000 nM | > 10000 nM | > 1000 nM | > 300 nM | > 10000 nM | > 10000 nM | > 10000 nM | > 2000 nM | > 1000 nM | > 10000 nM | > 1000 nM | > 10000 nM | > 300 nM | > 10000 nM | > 5000 nM | > 1000 nM | > 10000 nM | > 10000 nM | > 10000 nM | > 10000 nM | > 1000 nM | > 300 nM | > 1000 nM | > 1000 nM | > 10000 nM | > 1000 nM | > 1 nM | > 10000 nM | > 1000 nM | > 3000 nM | 1280 nM | > 20000 nM | > 10000 nM | > 10000 nM |
| OCI-AML2 (Acute Myeloid Leukemia) | 358 nM | 1170 nM | > 10000 nM | 6.33 nM | 4.7 nM | > 10000 nM | > 10000 nM | 3170 nM | > 2000 nM | < 1 nM | 7580 nM | 43 nM | > 10000 nM | > 300 nM | 6690 nM | 51.5 nM | > 1000 nM | 36.6 nM | 503 nM | 2780 nM | > 10000 nM | 341 nM | 7.97 nM | 7.92 nM | 12.3 nM | > 10000 nM | 12.4 nM | > 1 nM | 1340 nM | 193 nM | > 3000 nM | 4.45 nM | 1200 nM | > 10000 nM | 965 nM |
| SK-N-FI (Neuroblastoma) | 1600 nM | > 10000 nM | > 10000 nM | > 1000 nM | 157 nM | > 10000 nM | > 10000 nM | > 10000 nM | > 2000 nM | 117 nM | > 10000 nM | 447 nM | > 10000 nM | > 300 nM | > 10000 nM | > 5000 nM | > 1000 nM | 7750 nM | > 10000 nM | > 10000 nM | > 10000 nM | > 1000 nM | > 300 nM | > 1000 nM | > 1000 nM | > 10000 nM | 60.3 nM | > 1 nM | 2480 nM | > 1000 nM | > 3000 nM | 2250 nM | > 20000 nM | 955 nM | 8510 nM |
| SN12C (Kidney Carcinoma) | > 3000 nM | > 10000 nM | > 10000 nM | > 1000 nM | 290 nM | > 10000 nM | > 10000 nM | > 10000 nM | > 2000 nM | > 1000 nM | > 10000 nM | > 1000 nM | > 10000 nM | > 300 nM | > 10000 nM | > 5000 nM | > 1000 nM | > 10000 nM | > 10000 nM | > 10000 nM | > 10000 nM | > 1000 nM | > 300 nM | > 1000 nM | > 1000 nM | > 10000 nM | > 1000 nM | > 1 nM | > 10000 nM | > 1000 nM | > 3000 nM | > 3000 nM | > 20000 nM | > 10000 nM | > 10000 nM |
